Reference: patent US20050014149A1, “Assay for inhibitors of translocases” (priority 2001, published 2005)

Biological target: SV40 large T antigen (Simian virus 40, UniProt P03070)
Test: Homogeneous helicase assay (streptavidin displacement from biotin-labelled oligonucleotide, biotin-4-fluorescein quenching)
Type: biochemical
Conditions: inhibitor added to the helicase assay; fluorescence ex 485 nm / em 535 nm; FIG. 4
Excerpt: The helicase substrate takes the form of an oligonucleotide of length appropriate to the helicase under test that is biotinylated at one end, appropriate to the directionality of the helicase under test. In this example, a single-strand 60-mer with the sequence […] TGCATGATG was labelled with biotin at the 5′-terminus (obtained from Eurogentec, Belgium) so that it could be used as a substrate for the helicase function of the SV40 large T antigen which is a 3′-5′ helicase.
Equal volumes of streptavidin and biotin-labelled oligonucleotide dissolved in reaction buffer (see below) were mixed in such a way that there was at least a four-fold molar excess of oligonucleotide over streptavidin. This is to ensure the saturation of all biotin-binding sites on the streptavidin molecule (4 biotin-binding sites per molecule streptavidin). This mixture was incubated for at least 15 minutes before being used for the assay.
An aliquot of the oligonucleotide/streptavidin complex (oligo/SA) was then mixed with SV40 large T antigen and biotin-4-fluorescein in a suitable buffer, in this case 50 mM Tris-HCl pH 7.5, containing 3 mM MgCl2, 5 mM dithiothreitol and 100 μg/ml bovine serum albumin and pipetted into 384-well microplates.
The enzyme reaction was started by adding an appropriate amount of adenosine triphosphate and incubating the plate at 37° C. […]

Chain of SV40 large T antigen (P03070 whole entry): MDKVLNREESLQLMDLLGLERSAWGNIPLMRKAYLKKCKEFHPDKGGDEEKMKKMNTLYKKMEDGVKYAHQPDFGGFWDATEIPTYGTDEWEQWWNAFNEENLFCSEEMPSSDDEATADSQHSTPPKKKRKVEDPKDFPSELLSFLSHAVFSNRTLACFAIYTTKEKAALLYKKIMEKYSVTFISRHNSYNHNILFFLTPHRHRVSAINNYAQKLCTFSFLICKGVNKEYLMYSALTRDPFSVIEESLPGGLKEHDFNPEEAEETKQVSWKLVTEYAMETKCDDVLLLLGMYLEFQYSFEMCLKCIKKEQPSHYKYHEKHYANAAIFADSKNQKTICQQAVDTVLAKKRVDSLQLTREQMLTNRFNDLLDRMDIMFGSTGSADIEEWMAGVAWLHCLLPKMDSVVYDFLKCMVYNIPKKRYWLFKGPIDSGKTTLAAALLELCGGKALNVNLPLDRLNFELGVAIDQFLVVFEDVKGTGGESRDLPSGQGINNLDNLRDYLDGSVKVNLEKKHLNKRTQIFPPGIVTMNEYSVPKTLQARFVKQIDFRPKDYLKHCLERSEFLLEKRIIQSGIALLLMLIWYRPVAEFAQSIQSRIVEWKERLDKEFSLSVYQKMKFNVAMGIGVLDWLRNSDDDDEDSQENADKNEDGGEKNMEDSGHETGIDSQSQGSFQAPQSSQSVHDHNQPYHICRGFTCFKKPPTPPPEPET

## Cn1cc(NC(=O)c2cc(NC(=O)c3cc(NC=O)cn3C)cn2C)cc1C(=O)NCCC(=N)N [Distamycin A]
  helicase activity (displacement of the streptavidin from the biotin-labelled substrate): dose-dependently decrease helicase activity
